Active and inactive are the calls of the source. The rule behind the calls is not given here.

Assay type in all cases: functional
For experiment [1], the system named is Aspergillus niger. As to the kind of experiment: Antifungal activity against Aspergillus niger at 50 ug/well after 48 hrs by agar well diffusion method. The conditions noted are these: read-out: DIZ. On the technique in general: Agar diffusion results depend on both activity and mobility in agar.
In experiment [2] the test system is Penicillium chrysogenum. As to the kind of experiment: Antifungal activity against Penicillium chrysogenum at 100 ug/well after 48 hrs by agar well diffusion method. The conditions noted are these: read-out: DIZ.
Experiment [3] has as its system Penicillium chrysogenum. As to the kind of experiment: Antifungal activity against Penicillium chrysogenum at 50 ug/well after 48 hrs by agar well diffusion method. The note with it: read-out: DIZ.
The subject of experiment [4] is Staphylococcus aureus. The experiment is described as follows: Antibacterial activity against Staphylococcus aureus at 50 ug/well after 24 hrs by agar well diffusion method. The conditions noted are these: for zone of inhibition at 50 µg/disc: read-out: DIZ.
In experiment [5] the test system is Bacillus subtilis. As to the kind of experiment: Antibacterial activity against Bacillus subtilis at 100 ug/well after 24 hrs by agar well diffusion method. The note with it: for zone of inhibition at 100 µg/disc: read-out: DIZ.
In experiment [6] the test system is Aspergillus niger. The experiment is described as follows: Antifungal activity against Aspergillus niger at 100 ug/well after 48 hrs by agar well diffusion method. The conditions noted are these: read-out: DIZ.
Experiment [7] has as its system Staphylococcus aureus. The experiment is described as follows: Antibacterial activity against Staphylococcus aureus at 100 ug/well after 24 hrs by agar well diffusion method. The note with it: for zone of inhibition at 100 µg/disc: read-out: DIZ.
Experiment [8] relates to Klebsiella pneumoniae. The experiment is described as follows: Antibacterial activity against Klebsiella pneumoniae at 50 ug/well after 24 hrs by agar well diffusion method. The conditions noted are these: for zone of inhibition at 50 µg/disc: read-out: DIZ.
In experiment [9] the test system is Pseudomonas aeruginosa. The experiment is described as follows: Antibacterial activity against Pseudomonas aeruginosa at 100 ug/well after 24 hrs by agar well diffusion method. The conditions noted are these: for zone of inhibition at 100 µg/disc: read-out: DIZ.
For experiment [10], the system named is Klebsiella pneumoniae. The experiment is described as follows: Antibacterial activity against Klebsiella pneumoniae at 100 ug/well after 24 hrs by agar well diffusion method. The note with it: for zone of inhibition at 100 µg/disc: read-out: DIZ.
Experiment [11] deals with Bacillus subtilis. As to the kind of experiment: Antibacterial activity against Bacillus subtilis at 50 ug/well after 24 hrs by agar well diffusion method. The note with it: for zone of inhibition at 50 µg/disc: read-out: DIZ.
Experiment [12] deals with Pseudomonas aeruginosa. The experiment is described as follows: Antibacterial activity against Pseudomonas aeruginosa at 50 ug/well after 24 hrs by agar well diffusion method. The conditions noted are these: for zone of inhibition at 50 µg/disc: read-out: DIZ.

As to `COc1ccc(C2=NOC(c3ccc(C4ON=C(c5ccc(OC)cc5)C4S(=O)(=O)c4ccc(C)cc4)cc3)C2S(=O)(=O)c2ccc(C)cc2)cc1` (stereo not drawn), the zone of inhibition at 50 µg/disc turned out to be 16 mm with Aspergillus niger [1] and 15 mm with Penicillium chrysogenum [3]. Also, the zone of inhibition at 100 µg/disc was found to be 18 mm with Penicillium chrysogenum [2] and 19 mm with Aspergillus niger [6]. The “diameter of the inhibition zone (DIZ)” value with Staphylococcus aureus [4], with Bacillus subtilis [5], in the experiment with Staphylococcus aureus [7], with Klebsiella pneumoniae [8], in the experiment on Pseudomonas aeruginosa [9] and in the experiment on Klebsiella pneumoniae [10] was “inactive” in each case. Moreover, the “diameter of the inhibition zone (DIZ)” value in the experiment on Bacillus subtilis [11] and with Pseudomonas aeruginosa [12] was “inactive” in each case.

Take `COc1ccc(-c2nn(-c3ccccc3)c(-c3ccc(-c4c(S(=O)(=O)c5ccc(C)cc5)c(-c5ccc(OC)cc5)nn4-c4ccccc4)cc3)c2S(=O)(=O)c2ccc(C)cc2)cc1`: the zone of inhibition at 50 µg/disc in the experiment with Aspergillus niger [1] is 19 mm; in the experiment on Penicillium chrysogenum [3], 22 mm; in the experiment with Staphylococcus aureus [4], 15 mm; in the experiment with Klebsiella pneumoniae [8] it was 13 mm; with Bacillus subtilis [11], 20 mm; with Pseudomonas aeruginosa [12], 11 mm. The zone of inhibition at 100 µg/disc was 24 mm in the experiment on Penicillium chrysogenum [2]; 22 mm with Bacillus subtilis [5]; 21 mm in the experiment with Aspergillus niger [6]; 18 mm in the experiment with Staphylococcus aureus [7]; 13 mm with Pseudomonas aeruginosa [9]; 15 mm in the experiment on Klebsiella pneumoniae [10].

In the case of `COc1ccc(-c2noc(-c3ccc(-c4onc(-c5ccc(OC)cc5)c4S(=O)(=O)c4ccc(Cl)cc4)cc3)c2S(=O)(=O)c2ccc(Cl)cc2)cc1`, the zone of inhibition at 50 µg/disc came out at 23 mm with Aspergillus niger [1]; 27 mm in the experiment on Penicillium chrysogenum [3]; 23 mm in the experiment on Staphylococcus aureus [4]; 22 mm in the experiment on Klebsiella pneumoniae [8]; 30 mm with Bacillus subtilis [11]; 17 mm with Pseudomonas aeruginosa [12]. The zone of inhibition at 100 µg/disc was determined as 30 mm in the experiment on Penicillium chrysogenum [2]; 32 mm with Bacillus subtilis [5]; 26 mm in the experiment on Aspergillus niger [6]; 26 mm in the experiment with Staphylococcus aureus [7]; 20 mm in the experiment on Pseudomonas aeruginosa [9]; 24 mm in the experiment with Klebsiella pneumoniae [10].

Regarding `COc1ccc(-c2noc(-c3ccc(-c4onc(-c5ccc(OC)cc5)c4S(=O)(=O)c4ccc(C)cc4)cc3)c2S(=O)(=O)c2ccc(C)cc2)cc1`, the zone of inhibition at 50 µg/disc in the experiment on Aspergillus niger [1] amounted to 22 mm; in the experiment on Penicillium chrysogenum [3], 25 mm; with Staphylococcus aureus [4], 20 mm; in the experiment with Klebsiella pneumoniae [8], 16 mm; in the experiment on Bacillus subtilis [11], 25 mm; with Pseudomonas aeruginosa [12], 15 mm. Besides, the zone of inhibition at 100 µg/disc in the experiment on Penicillium chrysogenum [2] stood at 27 mm; in the experiment on Bacillus subtilis [5], 27 mm; in the experiment on Aspergillus niger [6], 24 mm; in the experiment with Staphylococcus aureus [7], 22 mm; in the experiment with Pseudomonas aeruginosa [9], 17 mm; with Klebsiella pneumoniae [10], 18 mm.

`O=S(=O)(c1ccccc1)C1C(c2ccc(Cl)cc2)=NN(c2ccccc2)C1c1ccc(C2C(S(=O)(=O)c3ccccc3)C(c3ccc(Cl)cc3)=NN2c2ccccc2)cc1` (stereo not drawn): the zone of inhibition at 50 µg/disc with Aspergillus niger [1] is 13 mm; in the experiment on Penicillium chrysogenum [3] it was 15 mm; in the experiment on Staphylococcus aureus [4], 11 mm; in the experiment with Klebsiella pneumoniae [8], 10 mm; in the experiment with Bacillus subtilis [11], 12 mm. Further, the zone of inhibition at 100 µg/disc was determined as 18 mm in the experiment with Penicillium chrysogenum [2]; 14 mm in the experiment with Bacillus subtilis [5]; 15 mm in the experiment with Aspergillus niger [6]; 13 mm with Staphylococcus aureus [7]; 12 mm in the experiment on Klebsiella pneumoniae [10]. Further, the “diameter of the inhibition zone (DIZ)” value in the experiment with Pseudomonas aeruginosa [9] and with Pseudomonas aeruginosa [12] was “inactive” throughout.

Regarding `O=S(=O)(c1ccc(Cl)cc1)C1C(c2ccc(Cl)cc2)=NOC1c1ccc(C2ON=C(c3ccc(Cl)cc3)C2S(=O)(=O)c2ccc(Cl)cc2)cc1` (stereo not drawn), the zone of inhibition at 50 µg/disc in the experiment with Aspergillus niger [1] worked out at 18 mm; with Penicillium chrysogenum [3] it was 21 mm; in the experiment with Staphylococcus aureus [4], 14 mm; in the experiment on Klebsiella pneumoniae [8] it was 12 mm; with Bacillus subtilis [11], 19 mm; in the experiment with Pseudomonas aeruginosa [12], 11 mm. The zone of inhibition at 100 µg/disc in the experiment on Penicillium chrysogenum [2] came out at 23 mm; with Bacillus subtilis [5], 21 mm; with Aspergillus niger [6] it was 20 mm; in the experiment on Staphylococcus aureus [7], 16 mm; in the experiment with Pseudomonas aeruginosa [9], 13 mm; in the experiment with Klebsiella pneumoniae [10], 14 mm.

Turning to `O=S(=O)(c1ccccc1)C1C(c2ccc(Cl)cc2)=NOC1c1ccc(C2ON=C(c3ccc(Cl)cc3)C2S(=O)(=O)c2ccccc2)cc1` (stereo not drawn), the zone of inhibition at 50 µg/disc with Aspergillus niger [1] was 15 mm; with Penicillium chrysogenum [3] it was 20 mm; in the experiment with Staphylococcus aureus [4] it was 14 mm; with Klebsiella pneumoniae [8], 11 mm; in the experiment with Bacillus subtilis [11] it was 18 mm; in the experiment on Pseudomonas aeruginosa [12], 10 mm. Moreover, the zone of inhibition at 100 µg/disc stood at 22 mm in the experiment on Penicillium chrysogenum [2]; 20 mm in the experiment on Bacillus subtilis [5]; 17 mm in the experiment with Aspergillus niger [6]; 16 mm with Staphylococcus aureus [7]; 12 mm in the experiment on Pseudomonas aeruginosa [9]; 13 mm in the experiment on Klebsiella pneumoniae [10].

As to `Cc1ccc(S(=O)(=O)c2c(-c3ccc(Cl)cc3)nn(-c3ccccc3)c2-c2ccc(-c3c(S(=O)(=O)c4ccc(C)cc4)c(-c4ccc(Cl)cc4)nn3-c3ccccc3)cc2)cc1`, the zone of inhibition at 50 µg/disc amounted to 22 mm with Aspergillus niger [1]; 26 mm in the experiment on Penicillium chrysogenum [3]; 24 mm in the experiment with Staphylococcus aureus [4]; 21 mm in the experiment on Klebsiella pneumoniae [8]; 28 mm with Bacillus subtilis [11]; 15 mm in the experiment on Pseudomonas aeruginosa [12]. The zone of inhibition at 100 µg/disc with Penicillium chrysogenum [2] was 29 mm; in the experiment with Bacillus subtilis [5], 30 mm; in the experiment on Aspergillus niger [6], 26 mm; in the experiment with Staphylococcus aureus [7], 26 mm; in the experiment on Pseudomonas aeruginosa [9] it was 18 mm; in the experiment on Klebsiella pneumoniae [10], 23 mm.

Consider `Cc1ccc(S(=O)(=O)C2C(c3ccc(Cl)cc3)=NOC2c2ccc(C3ON=C(c4ccc(Cl)cc4)C3S(=O)(=O)c3ccc(C)cc3)cc2)cc1` (stereo not drawn), for which the zone of inhibition at 50 µg/disc in the experiment with Aspergillus niger [1] was 15 mm; in the experiment with Penicillium chrysogenum [3] it was 17 mm; in the experiment with Staphylococcus aureus [4], 12 mm; in the experiment on Klebsiella pneumoniae [8] it was 10 mm; in the experiment with Bacillus subtilis [11], 16 mm. For the same compound, the zone of inhibition at 100 µg/disc in the experiment with Penicillium chrysogenum [2] came out at 21 mm; in the experiment with Bacillus subtilis [5] it was 18 mm; in the experiment on Aspergillus niger [6] it was 17 mm; with Staphylococcus aureus [7] it was 15 mm; with Klebsiella pneumoniae [10], 12 mm. The “diameter of the inhibition zone (DIZ)” value with Pseudomonas aeruginosa [9] and in the experiment with Pseudomonas aeruginosa [12] was “inactive” in each case.

The values above are taken from ChEMBL document CHEMBL3112509, “Synthesis and antimicrobial activity of (1,4-phenylene)bis(arylsulfonylpyrazoles and isoxazoles)” (2014).
